Experimental data: PMC9380819 (ACS Omega, 2022)
Entries after “also recorded” stand apart in the source; their conditions may differ.

Experiments:
[1] = biological target: SARS-CoV-2 spike RBD (331–528 amino acids) (Severe acute respiratory syndrome coronavirus 2, UniProt P0DTC2); assay: biochemical; assay type: binding
[2] = biological target: SARS-CoV-2 spike RBD: hACE2 (Severe acute respiratory syndrome coronavirus 2, UniProt P0DTC2); assay type: biochemical
SARS-CoV-2 [3] = assay type: cell-based
[4] = tested on: spike protein–ACE2 interaction; conditions: not tested against virally infected cells; cited from earlier work
[5] = tested on: SARS-CoV-2 (isolate USA WA1/2020); assay: microbe, parasite or virus in culture; assay type: cell-based; conditions: Severe acute respiratory syndrome coronavirus 2, Calu-3
SARS-CoV-2 [6] = conditions: 10 μM, after 48 h; cited from earlier work
in vitro = conditions: human
SARS-CoV-2 [7] = conditions: Vero cells; cited from earlier work
ACE2 = conditions: read-out: IC50 exopeptidase activity; cited from earlier work
SARS-CoV-2 [8] = conditions: cited from earlier work
SARS-CoV-2 [9] = conditions: cited from earlier work; remark: listed apart in the source

CC(C)NCC(O)COc1ccc(COCCOC(C)C)cc1 (racemic) [bisoprolol, (±)-Bisoprolol hemifumarate]
binding to the RBD spike in MST [1]: did not bind | disruption of the interaction between the RBD and ACE2 [2]: none of the compounds tested were able to disrupt the interaction | SARS-CoV-2 adsorption to Vero E6 cells (SARS-CoV-2 [3]): statistically decreased SARS-CoV-2 adsorption

O=c1c(O)c(-c2ccc(O)c(O)c2)oc2cc(O)cc(O)c12 [Quercetin]
IC50 [4]: 7 µM

CCC(CC)COC(=O)[C@H](C)N[P@](=O)(OC[C@H]1O[C@@](C#N)(c2ccc3c(N)ncnn23)[C@H](O)[C@@H]1O)Oc1ccccc1 [Remdesivir]
EC50 [5]: 0.08 µM

CC(C)NCC(O)COc1ccc(CC(N)=O)cc1 (stereo not drawn) [atenolol]
inhibition of SARS-CoV-2-induced cytotoxicity of Caco-2 cells (SARS-CoV-2 [6]): 25.84% | SARS-CoV-2 adsorption to Vero E6 cells (SARS-CoV-2 [3]): statistically decreased SARS-CoV-2 adsorption

CC(C)(C)NCC(O)COc1cccc2c1CCC(=O)N2 (stereo not drawn) [carteolol]
Kd [1]: 459 ± 111 nM | disruption of the interaction between the RBD and ACE2 [2]: none of the compounds tested were able to disrupt the interaction

COc1ccccc1OCCNCC(O)COc1cccc2[nH]c3ccccc3c12 (stereo not drawn) [carvedilol]
inhibition of SARS-CoV-2-induced cytotoxicity of Caco-2 cells (SARS-CoV-2 [6]): did not show activity | Kd [1]: 364 ± 22 nM | EC50 [5]: 7.57 µM | disruption of the interaction between the RBD and ACE2 [2]: none of the compounds tested were able to disrupt the interaction | CC50 (in vitro): 18.1 µM | SARS-CoV-2 adsorption to Vero E6 cells (SARS-CoV-2 [3]): statistically decreased SARS-CoV-2 adsorption; also recorded: highest reduction on SARS-CoV-2 adsorption

Oc1c(I)cc(Cl)c2cccnc12 [cliquinol]
EC50 (SARS-CoV-2 [7]): 12.6 µM | IC50 (ACE2): 5.36 µM

CCCCC/C=C\C/C=C\CCCCCCCC(=O)O [linoleic acid]
disruption of the interaction between the RBD and ACE2 [2]: not able to disrupt the interaction

CC(C)NCC(O)COc1cccc2[nH]ccc12 (stereo not drawn) [pindolol, Pindolol]
Kd [1]: 570 ± 144 nM | disruption of the interaction between the RBD and ACE2 [2]: none of the compounds tested were able to disrupt the interaction

COc1ccc2nc3cc(Cl)ccc3c(Nc3cc(CN4CCCC4)c(O)c(CN4CCCC4)c3)c2n1 [pyronaridine]
efficacy in a mouse model infected with SARS-CoV-2 (SARS-CoV-2 [8]): demonstrated efficacy | activity in A549-ACE2 cells (SARS-CoV-2 [9]): sub-micromolar

CCN(CC)CCCC(C)Nc1c2ccc(Cl)cc2nc2ccc(OC)cc12 (stereo not drawn) [quinacrine]
activity in A549-ACE2 cells (SARS-CoV-2 [9]): sub-micromolar

CCN(CC)CCOc1ccc2c(c1)C(=O)c1cc(OCCN(CC)CC)ccc1-2 [tilorone]
activity in A549-ACE2 cells (SARS-CoV-2 [9]): sub-micromolar
